The values below are quoted from earlier work in patent publication US9272049B2, “Methods of stimulating fat mobilization using a polymer conjugated polyphenol” (NANOPHARMACEUTICALS LLC, priority 2005, dated 2016).

Data set [1] deals with insulin-sensitive mammalian cell lines. To be noted: several insulin-sensitive mammalian cell lines.

Consider `Oc1ccc(C=Cc2cc(O)cc(O)c2)cc1` [Resveratrol], for which the fat accumulation result (in the data set on C. elegans; in data set [1]) was “reduce fat accumulation” each time.
